The results in this text go back to publication PMC6838199 (Scientific Reports, 2019).

What is called IC50 is the midpoint of a concentration-inhibition curve.

Common to all, as to assay: E1-E2 transthioesterification assay (UbcH5a, Coomassie gel), recombinant purified E1
Holding throughout (type): biochemical

Assay [1] deals with T1, TbUBA1a (Trypanosoma brucei, UniProt Q57XC5).
T1 construct: gene Tb08.26A17.680; GST fusion cleaved with HRV 3C

Assay [2] has as its target T2, human UBA1 (hUBA1), ubiquitin E1 activating enzyme (Homo sapiens, UniProt P22314).
T2 construct: N-terminal His-tagged hUBA1
T2 sequence (P22314 2-1058): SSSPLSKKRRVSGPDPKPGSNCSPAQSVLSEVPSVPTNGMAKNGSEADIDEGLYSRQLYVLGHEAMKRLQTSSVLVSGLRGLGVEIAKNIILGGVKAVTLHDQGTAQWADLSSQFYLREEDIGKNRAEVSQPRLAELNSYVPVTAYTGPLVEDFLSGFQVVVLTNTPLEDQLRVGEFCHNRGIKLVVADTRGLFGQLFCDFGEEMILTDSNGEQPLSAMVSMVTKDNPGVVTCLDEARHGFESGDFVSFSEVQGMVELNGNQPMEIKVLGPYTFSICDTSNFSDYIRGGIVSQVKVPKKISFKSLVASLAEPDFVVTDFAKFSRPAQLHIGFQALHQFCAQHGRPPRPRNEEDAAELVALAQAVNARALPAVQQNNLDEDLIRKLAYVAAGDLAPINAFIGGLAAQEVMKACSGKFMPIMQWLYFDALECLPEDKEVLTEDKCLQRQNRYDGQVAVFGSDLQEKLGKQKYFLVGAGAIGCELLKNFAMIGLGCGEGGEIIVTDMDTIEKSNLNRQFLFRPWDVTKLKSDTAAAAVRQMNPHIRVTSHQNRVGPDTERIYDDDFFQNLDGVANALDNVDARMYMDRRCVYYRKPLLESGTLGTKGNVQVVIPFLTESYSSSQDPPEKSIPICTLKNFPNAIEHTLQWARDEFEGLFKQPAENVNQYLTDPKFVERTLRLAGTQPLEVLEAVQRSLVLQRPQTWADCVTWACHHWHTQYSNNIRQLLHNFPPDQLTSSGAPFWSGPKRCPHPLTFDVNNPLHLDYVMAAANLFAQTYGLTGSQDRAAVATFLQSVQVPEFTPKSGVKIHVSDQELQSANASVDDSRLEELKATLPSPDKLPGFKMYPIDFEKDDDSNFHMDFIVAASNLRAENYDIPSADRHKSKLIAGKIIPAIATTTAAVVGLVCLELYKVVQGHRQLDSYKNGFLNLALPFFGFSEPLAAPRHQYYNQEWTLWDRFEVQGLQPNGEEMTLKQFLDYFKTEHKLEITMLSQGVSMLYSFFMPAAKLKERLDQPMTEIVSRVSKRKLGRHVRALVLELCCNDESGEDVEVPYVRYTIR

Assay [3] concerns the target T3, TbUBA1b (Trypanosoma brucei, UniProt Q38DE8).
T3 construct: gene Tb09.211.3610; GST fusion cleaved with thrombin
T3 sequence (Q38DE8 1-1214): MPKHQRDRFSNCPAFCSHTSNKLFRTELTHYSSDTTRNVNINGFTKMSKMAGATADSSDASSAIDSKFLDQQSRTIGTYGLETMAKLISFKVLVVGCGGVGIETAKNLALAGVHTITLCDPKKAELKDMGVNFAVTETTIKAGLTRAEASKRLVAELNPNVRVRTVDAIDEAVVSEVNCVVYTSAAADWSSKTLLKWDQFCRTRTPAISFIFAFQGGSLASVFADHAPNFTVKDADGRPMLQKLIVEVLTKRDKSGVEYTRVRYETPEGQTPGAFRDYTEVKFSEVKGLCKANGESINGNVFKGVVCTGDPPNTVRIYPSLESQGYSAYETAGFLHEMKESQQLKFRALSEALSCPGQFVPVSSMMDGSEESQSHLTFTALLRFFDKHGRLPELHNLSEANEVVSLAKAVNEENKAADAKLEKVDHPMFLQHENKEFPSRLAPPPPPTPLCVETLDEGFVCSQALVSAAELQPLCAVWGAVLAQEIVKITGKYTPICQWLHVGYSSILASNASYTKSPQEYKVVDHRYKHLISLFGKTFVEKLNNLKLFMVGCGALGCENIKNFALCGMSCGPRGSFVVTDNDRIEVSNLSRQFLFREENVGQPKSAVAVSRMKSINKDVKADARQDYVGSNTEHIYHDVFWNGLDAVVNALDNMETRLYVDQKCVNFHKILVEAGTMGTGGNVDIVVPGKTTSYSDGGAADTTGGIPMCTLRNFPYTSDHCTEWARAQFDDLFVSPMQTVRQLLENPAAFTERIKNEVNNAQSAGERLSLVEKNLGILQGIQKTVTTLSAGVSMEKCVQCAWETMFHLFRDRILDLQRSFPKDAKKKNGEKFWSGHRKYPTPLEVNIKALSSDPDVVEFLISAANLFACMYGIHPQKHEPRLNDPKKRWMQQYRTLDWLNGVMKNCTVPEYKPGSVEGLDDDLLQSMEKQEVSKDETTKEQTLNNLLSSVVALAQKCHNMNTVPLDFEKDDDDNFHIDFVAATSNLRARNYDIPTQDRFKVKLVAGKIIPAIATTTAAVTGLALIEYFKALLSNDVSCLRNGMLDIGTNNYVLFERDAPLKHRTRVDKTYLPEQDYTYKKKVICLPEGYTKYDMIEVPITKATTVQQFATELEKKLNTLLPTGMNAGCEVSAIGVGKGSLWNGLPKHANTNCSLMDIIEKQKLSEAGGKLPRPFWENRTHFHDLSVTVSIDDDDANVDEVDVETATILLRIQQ

Assay [4] concerns the target T4, TbUBA1a (Trypanosoma brucei, UniProt Q57XC5, E559D/Q534P/S560A).
T4 construct: gene Tb08.26A17.680; GST fusion cleaved with HRV 3C; with ubiquitin

Assay [5] deals with T5, TbUBA1b (Trypanosoma brucei, UniProt Q38DE8, E656D/T657A).
T5 construct: gene Tb09.211.3610; GST fusion cleaved with thrombin; with ubiquitin

Assay [6] has as its target T6, TbUBA1b (Trypanosoma brucei, UniProt Q38DE8).
T6 construct: gene Tb09.211.3610; GST fusion cleaved with thrombin; with ubiquitin

T4 sequence (Q57XC5 whole entry E559D/Q534P/S560A, the tested form may be a part): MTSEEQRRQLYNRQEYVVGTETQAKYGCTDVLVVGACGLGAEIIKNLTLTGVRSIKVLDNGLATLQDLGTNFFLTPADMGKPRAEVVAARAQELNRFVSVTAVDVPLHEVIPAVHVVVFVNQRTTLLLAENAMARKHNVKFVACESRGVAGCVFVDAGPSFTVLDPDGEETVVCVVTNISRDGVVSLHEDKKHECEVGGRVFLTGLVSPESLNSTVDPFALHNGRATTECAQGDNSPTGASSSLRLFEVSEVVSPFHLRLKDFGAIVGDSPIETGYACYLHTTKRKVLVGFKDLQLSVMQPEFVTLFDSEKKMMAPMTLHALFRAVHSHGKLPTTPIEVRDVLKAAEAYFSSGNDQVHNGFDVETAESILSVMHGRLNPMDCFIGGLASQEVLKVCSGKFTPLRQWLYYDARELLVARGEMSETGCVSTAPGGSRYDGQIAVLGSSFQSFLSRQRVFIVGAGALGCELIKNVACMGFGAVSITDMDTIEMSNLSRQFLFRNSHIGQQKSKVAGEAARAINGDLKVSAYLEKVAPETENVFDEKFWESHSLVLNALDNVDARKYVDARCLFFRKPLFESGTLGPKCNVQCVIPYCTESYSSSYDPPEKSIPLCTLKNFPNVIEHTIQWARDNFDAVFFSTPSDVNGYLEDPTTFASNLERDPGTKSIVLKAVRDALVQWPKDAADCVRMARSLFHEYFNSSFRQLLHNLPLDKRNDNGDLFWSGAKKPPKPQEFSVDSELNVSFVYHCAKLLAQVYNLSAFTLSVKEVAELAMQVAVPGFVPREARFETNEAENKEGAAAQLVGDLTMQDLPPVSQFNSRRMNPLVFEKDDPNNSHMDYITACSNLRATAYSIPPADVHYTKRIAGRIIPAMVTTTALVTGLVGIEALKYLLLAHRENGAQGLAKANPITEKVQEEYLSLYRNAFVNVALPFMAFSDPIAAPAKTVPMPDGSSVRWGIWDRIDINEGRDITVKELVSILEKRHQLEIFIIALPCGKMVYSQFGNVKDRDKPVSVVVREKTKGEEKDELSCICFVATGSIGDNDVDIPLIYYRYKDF
T1 sequence (Q57XC5 1-1055): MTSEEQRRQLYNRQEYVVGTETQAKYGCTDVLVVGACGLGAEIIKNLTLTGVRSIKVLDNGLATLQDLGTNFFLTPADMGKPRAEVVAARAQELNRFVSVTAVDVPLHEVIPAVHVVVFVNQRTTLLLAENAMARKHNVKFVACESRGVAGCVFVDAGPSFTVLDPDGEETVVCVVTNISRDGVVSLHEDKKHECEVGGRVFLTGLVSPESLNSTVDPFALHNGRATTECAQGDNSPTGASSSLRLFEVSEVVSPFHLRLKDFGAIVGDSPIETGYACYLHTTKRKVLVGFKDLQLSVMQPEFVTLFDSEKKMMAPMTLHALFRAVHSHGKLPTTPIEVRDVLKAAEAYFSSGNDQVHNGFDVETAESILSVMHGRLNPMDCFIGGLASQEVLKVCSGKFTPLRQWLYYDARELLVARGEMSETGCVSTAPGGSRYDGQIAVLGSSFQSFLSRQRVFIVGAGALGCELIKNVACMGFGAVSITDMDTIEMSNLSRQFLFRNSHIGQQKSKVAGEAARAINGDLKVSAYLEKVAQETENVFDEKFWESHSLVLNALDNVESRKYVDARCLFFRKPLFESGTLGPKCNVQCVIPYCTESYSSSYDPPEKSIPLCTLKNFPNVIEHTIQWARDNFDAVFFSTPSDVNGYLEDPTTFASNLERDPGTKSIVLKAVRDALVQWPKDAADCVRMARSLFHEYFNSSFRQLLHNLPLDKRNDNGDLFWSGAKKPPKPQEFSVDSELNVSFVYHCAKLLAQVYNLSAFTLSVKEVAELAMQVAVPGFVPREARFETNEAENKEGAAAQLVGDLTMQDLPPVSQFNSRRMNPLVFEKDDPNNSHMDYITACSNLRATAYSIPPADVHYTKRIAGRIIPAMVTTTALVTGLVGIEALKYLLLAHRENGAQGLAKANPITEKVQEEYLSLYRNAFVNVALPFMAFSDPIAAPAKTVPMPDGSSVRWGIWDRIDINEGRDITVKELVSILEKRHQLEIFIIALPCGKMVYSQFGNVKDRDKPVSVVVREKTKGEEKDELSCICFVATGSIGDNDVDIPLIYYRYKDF

As for `CCOC(=O)c1ccc(N2NC(=O)C(=Cc3ccc([N+](=O)[O-])o3)C2=O)cc1` [PYR-41], the “E1-E2 transthioesterification assay (UbcH5a, Coomassie gel), recombinant purifie” value in assay [1] is “the TbUBA1s were slightly (~two-fold) more sensitive to PYR-41 than hUBA1”; in assay [2], “we observed very little difference between inhibition of human and the T. brucei UBA1s (Fig. 3C)”; in assay [3], “the TbUBA1s were slightly (~two-fold) more sensitive to PYR-41 than hUBA1”.
As for `NS(=O)(=O)OC[C@H]1C[C@@H](Nc2ccnc3cc(-c4cccc(SC(F)(F)F)c4)nn23)[C@H](O)[C@@H]1O` [TAK-243], the IC50 in assay [4] worked out at 12 µM; in assay [6] it was 159 µM. Also, in assay [5], the “E1-E2 transthioesterification assay (UbcH5a, Coomassie gel), recombinant purifie” value is “The increase in inhibition of the double mutant E656D, T657A was almost as large as that of the triple mutant”.
